In patent publication US20260315434A1, “USE OF GUAIACOL SESQUITERPENE LACTONE DERIVATIVES” (NANJING UNIVERSITY OF CHINESE MEDICINE, priority 2023, published 2026):
Converted amounts (≈) assume the structure as drawn.

Key:
[1] = tested on: T cells / MDSCs; assay: Promotion of T cell proliferation in a co-culture model of MDSCs and T cells; type: cell-based, mouse; details: for T-cell proliferation rate (%) / T cell proliferation in MDSC-T cell co-culture: 1 μM; for T-cell proliferation rate (%): MDSCs treated 12 hours, co-culture of MDSCs and T cells, compared to the control group; for T cell proliferation in MDSC-T cell co-culture: result in words; for activation at 1 µM: Mus musculus, T-cell, 12 h, read-out: T-cell proliferation rate (%), 1 μM, MDSCs treated 12 hours, co-culture of MDSCs and T cells, compared to the control group
Method: Under sterile conditions, the tibia was removed, both ends of the bone were cut, and bone marrow was repeatedly flushed into a 15 mL centrifuge tube using a 1 mL syringe filled with culture medium. Centrifuge at 1600 rpm for 5 min to collect bone marrow cells. […] The spleen cell suspension was then transferred into a 15 mL centrifuge tube. Centrifuge at 1600 rpm for 5 min to collect T cells. Wash twice with 1×PBS. Resuspend the centrifuged T cells in 1 mL PBS and add 1 mL of 10 μM CFDA-SE solution. Incubate at room temperature for 8 min. […] After drug administration, collect MDSC cells into centrifuge tubes. Centrifuge at 1600 rpm for 5 min, remove supernatant, resuspend in 1 mL fresh medium, and plate. Add 1 mL stimulated activated T cells (1:1 ratio) for 48 h co-culture. After incubation, collect cells into centrifuge tubes, wash twice with PBS, and incubate with Fc antibody at room temperature in the dark for 10 min. Add CD3-labeled flow cytometry antibody and incubate at 4° C. in the dark for 30 min. After incubation, wash cells with PBS, resuspend in 300 μL PBS, and analyze by flow cytometry.

[2] = tested on: CCR2 mRNA; assay: Inhibition of CCR2 mRNA level in MDSCs; type: cell-based; details: Mus musculus, 2 h, read-out: Suppression Rate (inhibition of CCR2 mRNA levels)
Method: Under sterile conditions, the tibia was removed, both ends of the bone were cut, and bone marrow was repeatedly flushed into a 15 mL centrifuge tube using a 1 mL syringe filled with culture medium. Centrifuge at 1600 rpm for 5 min to collect bone marrow cells. […] Count cells and adjust density to 1×10^6 cells/mL in complete medium. Seed cells uniformly into 6-well plates at 2 mL per well. […] After incubation, collect cells into centrifuge tubes, centrifuge at 1600 rpm for 5 min, wash once with 1×PBS, and add 500 μL RNA extraction reagent to each tube. After centrifugation to obtain the pellet, add 20 μL DEPC-treated water to each tube to dissolve the pellet. Determine RNA concentration and reverse transcribe to cDNA. Add the cDNA, primers, and […] to a 96-well plate. Centrifuge at 4000 rpm for 5 min, then place in a PCR instrument for detection.

[3] = tested on: MDSCs; assay: Inhibition of MDSC chemotaxis (Transwell, tumor-conditioned medium); type: cell-based, mouse; set-up: inhibition of MDSC chemotaxis compared to Arg: dose or concentration left out as unconfirmed; details: for inhibition at 1 µM / inhibition at 10 µM: Mus musculus, read-out: Suppression Rate (MDSC chemotaxis); for inhibition of MDSC chemotaxis compared to Arg: result in words
Method: Hepa1-6 mouse hepatocellular carcinoma cells were uniformly seeded into 6-well plates. After cells reached confluence, supernatant was aspirated, and 1-1.5 mL fresh medium was added to each well. Following 24 h culture, supernatant was collected, centrifuged at 1600 rpm for 5 min, aspirated, and filtered through a 0.22 μm membrane to obtain tumor-conditioned medium for subsequent use. […] Under sterile conditions, remove the tibia, cut both ends of the bone, and aspirate the bone marrow into a 1 mL syringe. Repeat flushing into a 15 mL centrifuge tube. Centrifuge at 1600 rpm for 5 min to collect bone marrow cells. Wash twice with 1×PBS. […] Count cells, adjust density to 1×10^6 cells/mL, and uniformly seed into 24-well plates at 300 μL per well. […] Centrifuge at 1600 rpm for 5 min, remove supernatant, resuspend cells in 300 μL fresh medium, and place into Transwell chambers. […] Co-culture for 24 h.

[4] = Water solubility testing of compounds (HPLC); details: deionized water, 37 °C; for solubility: water, Water-solubility
[5] = Conversion (release) of prodrug salts to parent compound in mouse plasma; type: in vitro ADME; details: 37 °C
Method: (§1) Pharmaceutically acceptable salts of guaiane-type sesquiterpene lactone derivatives were selected and evaluated for their conversion rates to Compound 1 and Compound 83 in plasma and HEPES buffer, with results shown in Tables 2-1, 2-2, 3-1, and 3-2.
Plasma Preparation: Collect mouse plasma into an EP tube pre-loaded with sodium heparin, centrifuge at 8000 rpm for 10 minutes at 4° C., and then collect the supernatant.
(§2) Sample Analysis: Dissolve 0.6 mg of the compound in 250 μL of deionized water separately. Add 250 μL of mouse serum or HEPES 7.4 solution to the sample, incubate at a constant temperature of 37° C., and collect samples at different time points. Pipette 20 μL of the sample to an EP tube, add 60 μL of methanol, vortex to mix thoroughly, and centrifuge at 12,000 rpm at 4° C. for 10 min. At 1 h, 2 h, 4 h, 8 h, and 12 h respectively, collect the supernatant for HPLC analysis. Inject 10 μL of sample and record the corresponding peak areas. Chromatographic conditions: Hanbang C18 column (4.6×250 mm, 5 μm); mobile phase: acetonitrile: […] ammonium formate solution=60:40; flow rate 1.0 mL/min; detection wavelength 210 nm; column temperature 30° C.

[6] = Conversion (release) of prodrug salts to parent compound in HEPES buffer pH 7.4; type: in vitro ADME; details: for Release rate (conversion to Compound 83): HEPES pH 7.4, 37 °C
Method: as §1
Experimental Method: Preparation of HEPES 7.4 Solution: Dissolve 1.6 g NaCl, 0.074 g KCl, 0.027 g Na2HPO4, 0.2 g glucose, and 1 g 4-(2-Hydroxyethyl)piperazine-1-ethanesulfonic acid (HEPES) solution in 90 mL distilled water. Adjust the pH to 7.4 using 0.5 M NaOH, then dilute to a final volume 100 mL with distilled water.
as §2

[7] = tested on: serum ALT and AST; assay: CCl4-induced acute liver injury, serum ALT and AST; type: in vivo, C57BL/6 mice; details: 200 mg/kg
Method: (§3) They were acclimated for 7 days before use in experiments.
(§4) Mice were randomly assigned to groups. One group was arbitrarily designated as the normal group, while the remaining groups served as model group, Compound 1 group, Hydrochloride 20 group, Fumarate 21 group, and Silibinin group, with 6 mice per group. Except for the normal group receiving 10 mL olive oil/kg via injection, all other mice received 0.5 mL CCl4+9.5 mL olive oil/kg body weight via intraperitoneal injection, maintaining a CCl4 to olive oil ratio of 1:19. Starting from day 1 of modeling, Compound 1, Hydrochloride 20, and Fumarate 21 were administered orally for 3 consecutive days.
(§5) The blood was allowed to stand at room temperature for 2 hours, then centrifuged at 3000 rpm for 20 minutes. Serum was aspirated, aliquoted, and stored at −70° C. for future use. After blood collection, euthanize mice by cervical dislocation. Perform laparotomy to remove the liver. Rinse twice with pre-chilled PBS. Excise the left hepatic lobe tissue. […] Store remaining tissue at −70° C. for future use.
Serum AST and ALT Assay: Use 10 μL of each sample for testing. Determine mouse serum AST and ALT levels according to the operating manual. Measure absorbance at 510 nm using an enzyme-linked immunosorbent assay (ELISA) reader. Calculate sample concentration (U/L) based on the standard curve.
(§6) Data Statistics: All data are expressed as means f standard error of the mean (S.E.M.). Differences were analyzed for significance using analysis of variance (ANOVA). For groups showing significant differences in ANOVA, one-way ANOVA followed by Dunnett's test was performed to compare intergroup differences.

[8] = tested on: fibrosis-related factors (Acta2, Col1a1, Tgfb1) in liver tissue; assay: CCl4-induced acute liver injury, liver fibrosis-related factor mRNA; type: in vivo, C57BL/6 mice; set-up: unit not given here; details: 200 mg/kg
Method: as §3, §4, §5
Q-PCR Analysis: Tissue total RNA extraction, cDNA synthesis, and PCR amplification methods are identical to Example 4. Additional primer information is as follows:
as §6

Compound	T-cell proliferation rate (%) [1]	T cell proliferation in MDSC-T cell co-culture [1]	inhibition at 1 µM [2] [%]	inhibition at 10 µM [2] [%]	inhibition at 1 µM [3] [%]	inhibition at 10 µM [3] [%]	Water-solubility [4] [mg/mL]	activation at 1 µM [1] [%]	inhibition of MDSC chemotaxis compared to Arg [3]	solubility [4] [mg/mL]	other results
C=C1C(=O)O[C@H]2[C@H]1CCC(C)=C1CC[C@@](C)(OC(=O)NCCN3CCOCC3)[C@@H]12 [Compound 78]	+++ (T-cell proliferation rate >40% compared to the control group)	significantly enhanced T-cell proliferation	23	52.7	29	67.1	0.200	–	–	–	–
C=C1C(=O)O[C@H]2[C@H]1CCC(C)=C1CC[C@@](C)(OC(=O)N3CCCC3)[C@@H]12 [Compound 82]	–	significantly enhanced T-cell proliferation	28.5	74.4	38.5	77.6	–	> 40	superior inhibition rates	0.148 (≈ 0.428 mM)	–
C=C1C(=O)O[C@H]2[C@H]1CCC(C)=C1CC[C@@](C)(OC(=O)N3CCCCC3)[C@@H]12 [Compound 83]	–	significantly enhanced T-cell proliferation	17	70	29.4	75.9	0.152	> 40	superior inhibition rates	–	–
CC1=C2CC[C@@](C)(OC(=O)N3CCCCC3)[C@@H]2[C@H]2OC(=O)[C@@H](CN3CCCC3)[C@@H]2CC1 [Compound 100]	+ (T-cell proliferation rate within the 0-20% range compared to the control group)	–	–	–	–	–	–	–	–	145 (≈ 336 mM)	metabolised at 1 h ([5]; mouse, plasma, 1 h, read-out: Release rate (conversion to Compound 83)): 6.6%; metabolised at 2 h ([5]; mouse, plasma, 2 h, read-out: Release rate (conversion to Compound 83)): 13.8%; metabolised at 4 h ([5]; mouse, plasma, 4 h, read-out: Release rate (conversion to Compound 83)): 25.6%; metabolised at 8 h ([5]; mouse, plasma, 8 h, read-out: Release rate (conversion to Compound 83)): 43.2%; metabolised at 12 h ([5]; mouse, plasma, 12 h, read-out: Release rate (conversion to Compound 83)): 53%; degraded at 1 h ([6]; hepes buffer, pH 7.4, HEPES pH 7.4, 37 °C, 1 h, read-out: Release rate (conversion to Compound 83)): 6.5%; degraded at 2 h ([6]; hepes buffer, pH 7.4, HEPES pH 7.4, 37 °C, 2 h, read-out: Release rate (conversion to Compound 83)): 14%; degraded at 4 h ([6]; hepes buffer, pH 7.4, HEPES pH 7.4, 37 °C, 4 h, read-out: Release rate (conversion to Compound 83)): 26.4%; degraded at 8 h ([6]; hepes buffer, pH 7.4, HEPES pH 7.4, 37 °C, 8 h, read-out: Release rate (conversion to Compound 83)): 45.2%; degraded at 12 h ([6]; hepes buffer, pH 7.4, HEPES pH 7.4, 37 °C, 12 h, read-out: Release rate (conversion to Compound 83)): 51.4%
CC1=C2CC[C@@](C)(OC(=O)N3CCCCC3)[C@@H]2[C@H]2OC(=O)[C@@H](CN3CCCC3)[C@@H]2CC1 [Compound 101]	+ (T-cell proliferation rate within the 0-20% range compared to the control group)	–	–	–	–	–	108.0	–	–	–	Release rate (conversion to Compound 83) ([5]; 1 h, 60 min): 7.6%; Release rate (conversion to Compound 83) ([5]; 2 h, 120 min): 16.6%; Release rate (conversion to Compound 83) ([5]; 4 h, 240 min): 27.4%; Release rate (conversion to Compound 83) ([5]; 8 h, 480 min): 46.0%; Release rate (conversion to Compound 83) ([5]; 12 h, 720 min): 54.2%; Release rate (conversion to Compound 83) ([6]; 1 h, 60 min): 7.0%; Release rate (conversion to Compound 83) ([6]; 2 h, 120 min): 16.0%; Release rate (conversion to Compound 83) ([6]; 4 h, 240 min): 28.2%; Release rate (conversion to Compound 83) ([6]; 8 h, 480 min): 46.4%; Release rate (conversion to Compound 83) ([6]; 12 h, 720 min): 53.6%
Silybin [reference compound]	–	–	–	–	–	–	–	–	–	–	ALT [7]: 121.58 ± 15.45 U/L; AST [7]: 301.45 ± 38.44 U/L; Acta2 mRNA expression, liver [8]: 2.91 ± 0.48; Col1a1 mRNA expression, liver [8]: 1.84 ± 0.17; Tgfb1 mRNA expression, liver [8]: 1.11 ± 0.08
